{"source": "ChEMBL document CHEMBL6096693", "about": "“Fragment-to-Lead Medicinal Chemistry Publications in 2023” (J Med Chem, 2025)", "key": {"[1]": {"test": "Binding affinity to Interleukin-1beta (unknown origin) assessed as dissociation constant by SPR analysis", "design": "species or system Homo sapiens"}, "[2]": {"target": "Bromodomain-containing protein 4 (Homo sapiens, UniProt O60885)", "test": "Inhibition of BRD4 BD1 (unknown origin) using biotinylated tetra-acetylated H4 peptide SGRG-K(Ac)-GG-K(Ac)-GLG-K(Ac)-GGA-K(Ac)-RHRK-Biotin as substrate incubated for 60 mins by TR-FRET analysis"}, "[3]": {"target": "Bifunctional dihydrofolate reductase-thymidylate synthase (Plasmodium falciparum K1, UniProt P13922)", "sequence (P13922 whole entry)": "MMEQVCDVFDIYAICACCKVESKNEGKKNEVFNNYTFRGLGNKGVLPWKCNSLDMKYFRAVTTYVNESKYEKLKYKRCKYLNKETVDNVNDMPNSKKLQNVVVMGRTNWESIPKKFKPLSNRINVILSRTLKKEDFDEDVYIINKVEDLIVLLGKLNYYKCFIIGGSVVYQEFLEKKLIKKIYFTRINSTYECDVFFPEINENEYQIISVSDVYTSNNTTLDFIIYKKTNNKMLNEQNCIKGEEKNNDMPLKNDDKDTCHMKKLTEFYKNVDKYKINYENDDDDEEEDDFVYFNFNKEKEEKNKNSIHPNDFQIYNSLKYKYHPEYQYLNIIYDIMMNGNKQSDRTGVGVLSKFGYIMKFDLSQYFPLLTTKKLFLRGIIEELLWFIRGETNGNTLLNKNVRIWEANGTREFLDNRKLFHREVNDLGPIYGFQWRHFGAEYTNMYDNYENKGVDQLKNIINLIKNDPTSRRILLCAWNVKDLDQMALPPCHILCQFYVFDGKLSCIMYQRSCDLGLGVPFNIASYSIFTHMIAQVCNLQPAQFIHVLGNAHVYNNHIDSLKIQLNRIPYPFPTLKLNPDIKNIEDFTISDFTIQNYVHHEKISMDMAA", "test": "Binding affinity to Plasmodium falciparum DHFR assessed as inhibition constant"}, "[4]": {"test": "Inhibition of SARS-CoV2 Mac1 extracted from Escherichia coli Rosetta2 (DE3)", "design": "species or system Severe acute respiratory syndrome coronavirus 2"}, "[5]": {"target": "T1, Coagulation factor XII (Homo sapiens, UniProt P00748)", "T1 sequence (P00748 whole entry)": "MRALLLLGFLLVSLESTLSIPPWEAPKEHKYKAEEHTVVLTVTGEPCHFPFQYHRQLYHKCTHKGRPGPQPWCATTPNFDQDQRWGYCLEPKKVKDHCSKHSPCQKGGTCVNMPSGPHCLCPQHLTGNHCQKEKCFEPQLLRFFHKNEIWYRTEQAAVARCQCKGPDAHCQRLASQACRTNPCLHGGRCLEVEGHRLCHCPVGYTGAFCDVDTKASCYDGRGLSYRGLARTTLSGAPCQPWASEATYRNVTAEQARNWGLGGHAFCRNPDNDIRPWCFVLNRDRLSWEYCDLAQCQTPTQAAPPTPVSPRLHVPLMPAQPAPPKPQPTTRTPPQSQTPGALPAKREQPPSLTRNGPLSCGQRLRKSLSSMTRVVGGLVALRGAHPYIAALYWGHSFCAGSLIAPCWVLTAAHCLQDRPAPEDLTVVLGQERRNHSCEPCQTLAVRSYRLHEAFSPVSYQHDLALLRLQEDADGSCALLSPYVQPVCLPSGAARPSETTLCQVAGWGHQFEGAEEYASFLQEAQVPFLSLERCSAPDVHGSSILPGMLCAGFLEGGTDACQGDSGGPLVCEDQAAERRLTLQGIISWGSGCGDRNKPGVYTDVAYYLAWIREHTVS", "test": "Inhibition of human FXIIa (unknown origin)"}, "[6]": {"target": "Epidermal growth factor receptor (Homo sapiens, UniProt P00533)", "sequence (P00533 whole entry)": "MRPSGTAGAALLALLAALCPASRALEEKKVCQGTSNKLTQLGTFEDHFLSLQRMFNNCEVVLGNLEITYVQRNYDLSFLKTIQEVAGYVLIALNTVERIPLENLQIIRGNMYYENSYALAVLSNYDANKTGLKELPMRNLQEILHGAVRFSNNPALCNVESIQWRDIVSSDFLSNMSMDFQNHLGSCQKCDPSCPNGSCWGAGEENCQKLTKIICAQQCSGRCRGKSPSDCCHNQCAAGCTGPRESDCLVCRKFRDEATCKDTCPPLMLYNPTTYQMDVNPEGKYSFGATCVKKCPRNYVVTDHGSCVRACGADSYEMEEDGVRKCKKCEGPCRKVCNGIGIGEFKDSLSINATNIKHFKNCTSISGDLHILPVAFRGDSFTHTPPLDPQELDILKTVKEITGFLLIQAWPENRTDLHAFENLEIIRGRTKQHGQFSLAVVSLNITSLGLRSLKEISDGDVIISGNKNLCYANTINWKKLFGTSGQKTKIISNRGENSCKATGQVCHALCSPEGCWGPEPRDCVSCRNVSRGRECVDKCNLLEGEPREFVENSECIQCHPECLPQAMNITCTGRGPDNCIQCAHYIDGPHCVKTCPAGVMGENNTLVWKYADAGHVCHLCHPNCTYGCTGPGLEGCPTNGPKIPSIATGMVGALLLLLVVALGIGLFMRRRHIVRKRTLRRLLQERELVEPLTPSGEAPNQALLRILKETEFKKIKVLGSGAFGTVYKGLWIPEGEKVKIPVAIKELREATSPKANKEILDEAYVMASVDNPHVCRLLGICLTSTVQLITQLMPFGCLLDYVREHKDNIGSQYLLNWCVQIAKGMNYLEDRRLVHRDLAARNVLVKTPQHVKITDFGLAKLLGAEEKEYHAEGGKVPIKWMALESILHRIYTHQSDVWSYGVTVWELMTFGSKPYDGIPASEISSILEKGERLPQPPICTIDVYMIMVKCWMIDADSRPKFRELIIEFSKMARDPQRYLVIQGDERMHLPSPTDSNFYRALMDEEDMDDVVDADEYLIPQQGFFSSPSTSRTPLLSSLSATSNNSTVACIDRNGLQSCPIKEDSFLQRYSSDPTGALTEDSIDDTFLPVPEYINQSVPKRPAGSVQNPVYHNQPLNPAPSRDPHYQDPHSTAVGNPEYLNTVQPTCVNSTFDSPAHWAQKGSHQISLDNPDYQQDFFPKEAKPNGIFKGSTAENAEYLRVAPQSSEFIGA", "test": "Inhibition of EGFR (unknown origin)"}, "[7]": {"target": "T2, ATPase family AAA domain-containing protein 2 (Homo sapiens, UniProt Q6PL18)", "T2 sequence (Q6PL18 whole entry)": "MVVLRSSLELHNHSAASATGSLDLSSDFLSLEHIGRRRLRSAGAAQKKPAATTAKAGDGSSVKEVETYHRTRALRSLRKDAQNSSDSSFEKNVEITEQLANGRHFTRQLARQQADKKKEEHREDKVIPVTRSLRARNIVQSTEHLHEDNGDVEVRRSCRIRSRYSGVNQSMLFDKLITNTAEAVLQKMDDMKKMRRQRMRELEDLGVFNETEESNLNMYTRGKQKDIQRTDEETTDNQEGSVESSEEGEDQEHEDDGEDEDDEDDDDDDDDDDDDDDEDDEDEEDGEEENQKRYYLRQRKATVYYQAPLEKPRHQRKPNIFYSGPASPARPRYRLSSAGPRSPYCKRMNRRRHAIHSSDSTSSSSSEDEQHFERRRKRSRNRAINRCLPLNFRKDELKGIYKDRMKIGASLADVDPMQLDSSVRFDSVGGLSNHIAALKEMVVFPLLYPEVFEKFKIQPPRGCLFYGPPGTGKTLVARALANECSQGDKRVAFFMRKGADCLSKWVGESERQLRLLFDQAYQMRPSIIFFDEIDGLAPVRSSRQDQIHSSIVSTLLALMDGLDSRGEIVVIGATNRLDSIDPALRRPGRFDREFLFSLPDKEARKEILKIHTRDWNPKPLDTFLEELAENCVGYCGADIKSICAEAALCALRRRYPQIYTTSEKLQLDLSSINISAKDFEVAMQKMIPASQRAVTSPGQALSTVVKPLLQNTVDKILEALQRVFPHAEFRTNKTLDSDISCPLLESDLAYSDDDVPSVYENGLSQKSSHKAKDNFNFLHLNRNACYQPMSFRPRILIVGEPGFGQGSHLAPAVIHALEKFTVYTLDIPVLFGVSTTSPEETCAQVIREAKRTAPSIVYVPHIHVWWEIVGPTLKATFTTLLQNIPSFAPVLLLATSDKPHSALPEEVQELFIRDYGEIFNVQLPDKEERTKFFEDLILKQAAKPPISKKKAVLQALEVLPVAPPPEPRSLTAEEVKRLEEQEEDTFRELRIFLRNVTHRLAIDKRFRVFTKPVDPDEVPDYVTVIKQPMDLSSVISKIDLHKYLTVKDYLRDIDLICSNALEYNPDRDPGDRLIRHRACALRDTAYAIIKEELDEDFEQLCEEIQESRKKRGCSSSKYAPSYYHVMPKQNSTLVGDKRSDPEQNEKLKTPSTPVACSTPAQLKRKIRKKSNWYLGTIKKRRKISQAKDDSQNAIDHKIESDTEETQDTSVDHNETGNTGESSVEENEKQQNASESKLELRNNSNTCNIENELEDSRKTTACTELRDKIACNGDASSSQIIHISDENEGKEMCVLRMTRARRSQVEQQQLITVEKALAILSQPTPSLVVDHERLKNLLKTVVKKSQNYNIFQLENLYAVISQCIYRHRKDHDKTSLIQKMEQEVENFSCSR", "test": "Inhibition of recombinant ATAD2 bromodomain (unknown origin) by TR-FRET assay"}}}
{"smiles": "Cc1ccc2c(c1)NC(=O)[C@@]2(c1cn[nH]c1)c1cc(-c2ccc(C(=O)O)cc2C(=O)O)ccc1O", "values": [{"measurement": "Kd", "setting": "[1]", "value": 1.1, "unit": "µM"}]}
{"smiles": "CCNC(=O)[C@H](C)NC(=O)Cn1cc(-c2c(C)noc2C)cn1", "values": [{"measurement": "IC50", "setting": "[2]", "value": 0.05, "unit": "µM"}]}
{"smiles": "O=C(O)c1cccc(-c2ccncc2)c1", "values": [{"measurement": "Ki", "setting": "[3]", "value": "> 500", "unit": "µM"}]}
{"smiles": "O=C(Nc1ccc(C(=O)N[C@H]2c3cccc(O)c3C[C@H]2C(=O)O)cc1)NC1CC1", "values": [{"measurement": "IC50", "setting": "[4]", "value": "> 180", "unit": "µM"}, {"measurement": "IC50", "setting": "[5]", "value": 390, "unit": "µM"}]}
{"smiles": "C=CC(=O)Nc1ccccn1", "values": [{"measurement": "IC50", "setting": "[6]", "value": "> 500", "unit": "µM"}]}
{"smiles": "O=C1Nc2cc(C(F)(F)F)ccc2C1(O)c1cc(Cl)ccc1O", "note": "(configuration not stated)", "values": [{"measurement": "Kd", "setting": "[1]", "value": 520, "unit": "µM"}]}
{"smiles": "Cn1c(=O)c2[nH]cnc2n(C)c1=O", "note": "[THEOPHYLLINE ANHYDROUS]", "values": [{"measurement": "IC50", "setting": "[7]", "value": 320, "unit": "µM"}]}
{"smiles": "Cn1cc(-c2onc(C(=O)O)c2CO)c2ccccc21", "values": [{"measurement": "IC50", "setting": "[2]", "value": 0.91, "unit": "µM"}]}
{"smiles": "O=C(O)c1cc(-c2c[nH]c3ccccc23)on1", "values": [{"measurement": "IC50", "setting": "[2]", "value": 97, "unit": "µM"}]}
{"smiles": "C=CC(=O)Nc1cc(-c2cn(C)c3ccccc23)ncn1", "values": [{"measurement": "IC50", "setting": "[6]", "value": 0.9, "unit": "µM"}]}
{"smiles": "Cc1cc(C)on1", "values": [{"measurement": "IC50", "setting": "[2]", "value": 84, "unit": "µM"}]}
